Measurements taken from ChEMBL document CHEMBL5370652, “Ligand Sulfur Oxidation State Progressively Alters Galectin-3-Ligand Complex Conformations To Induce Affinity-Influencing Hydrogen Bonds” (J Med Chem, 2023).

Columns and labels:
Galectin-3 [1] = molecular target: T1, Galectin-3 (Homo sapiens, UniProt P17931); assay: Binding affinity to wild type Galectin-3 (unknown origin) assessed as dissociation constant by fluorescence polarization assay
Galectin-3 [2] = molecular target: T1, Galectin-3
Description: Binding affinity to Galectin-3 (unknown origin) assessed as change in entropy by isothermal titration calorimetry analysis

Galectin-3 [3] = molecular target: T1, Galectin-3; remark: listed apart in the source
Description: Binding affinity to Galectin-3 (unknown origin) assessed as gibbs free energy change by isothermal titration calorimetry analysis

Galectin-3 [4] = molecular target: T1, Galectin-3; remark: listed apart in the source
Description: Binding affinity to Galectin-3 (unknown origin) assessed as change in enthalpy by isothermal titration calorimetry analysis

Galectin-3 [5] = molecular target: T1, Galectin-3; assay: Binding affinity to Galectin-3 (unknown origin) assessed as dissociation constant by fluorescence polarization assay

T1 sequence (P17931 whole entry): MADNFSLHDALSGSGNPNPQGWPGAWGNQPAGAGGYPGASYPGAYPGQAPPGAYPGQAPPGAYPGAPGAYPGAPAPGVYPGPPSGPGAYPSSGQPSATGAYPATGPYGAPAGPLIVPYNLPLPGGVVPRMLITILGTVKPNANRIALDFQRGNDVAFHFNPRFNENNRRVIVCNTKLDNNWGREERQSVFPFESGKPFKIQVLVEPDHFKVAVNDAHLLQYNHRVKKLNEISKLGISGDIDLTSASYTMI

Kd (Galectin-3 [1]) [µM] | -TdeltaS (Galectin-3 [2]) [kcal/mol] | deltaG (Galectin-3 [3]) [kcal/mol] | deltaH (Galectin-3 [4]) [kcal/mol] | Kd (Galectin-3 [5]) [µM] | Compound
79 | – | – | – | – | Cc1ccc(S[C@@H]2O[C@H](CO)[C@H](O)[C@H](n3cc(S(=O)(=O)c4ccccc4)nn3)[C@H]2O)cc1
– | 0.62 | -5.55 | -6.17 | 55.5 | [O-][S+](c1ccccc1)c1cn([C@H]2[C@@H](O)[C@@H](CO)O[C@@H](S[C@@H]3O[C@H](CO)[C@@H](O)[C@H](O)[C@H]3O)[C@@H]2O)nn1 (stereo not given in full)
